Earlier results on one molecule are cited in patent publication US20250302750A1, “PHARMACEUTICAL COMPOSITION OF BEMPEDOIC ACID” (Renata Pharmaceuticals (Ireland) Ltd, priority 2022, published 2025).

The conditions of data set [1]: solid state; per US 20180338922.

Take `CC(C)(CCCCCC(O)CCCCCC(C)(C)C(=O)O)C(=O)O` [Bempedoic acid]: the Solubility in water entry is “poorly soluble”. For the same molecule, in data set [1], the Flow characteristics result was “poor flow characteristics” and the Stickiness entry is on record as “very sticky”.
